Consider 38 compounds from patent US8815872B2, “Macrocyclics pyrimidines as aurora kinase inhibitors” (Merck Patent GmbH, priority 2008, dated 2014).

One experiment deals with MiaPaca2. Kind of experiment: Cellular activity MiaPaca2. The class given is cell-based. The following applies: Homo sapiens, MIA PaCa-2. As for the experimental part: (§1) The susceptibility of a particular cell to treatment with the compounds according to the invention was determined by in vitro tests. Typically, a culture of the cell was combined with a compound according to the invention at various concentrations for a period of time that was sufficient to allow the active agents to induce cell death or to inhibit migration, usually between about one hour and one week. In vitro testing was carried out using cultivated cells from a biopsy sample. The viable cells remaining after the treatment then were counted.

The next experiment addresses T1, Aurora A (Homo sapiens, UniProt O14965).
T1 construct: N-terminal GST fusion with full length Aurora A (1-403 amino acids); purchased Carna Biosciences 05-101
T1 sequence (O14965 1-403): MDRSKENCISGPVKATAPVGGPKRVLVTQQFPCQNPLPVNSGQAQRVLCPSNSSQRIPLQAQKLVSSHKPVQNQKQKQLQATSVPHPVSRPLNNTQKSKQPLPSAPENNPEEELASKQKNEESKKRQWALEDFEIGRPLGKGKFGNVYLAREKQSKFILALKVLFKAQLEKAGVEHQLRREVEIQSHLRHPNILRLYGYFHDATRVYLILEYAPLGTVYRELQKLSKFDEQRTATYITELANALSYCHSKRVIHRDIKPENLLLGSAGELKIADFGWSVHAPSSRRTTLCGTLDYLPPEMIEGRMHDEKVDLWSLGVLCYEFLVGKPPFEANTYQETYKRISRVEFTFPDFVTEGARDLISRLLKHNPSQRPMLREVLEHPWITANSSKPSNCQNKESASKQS
The experiment is described as follows: Aurora A enzyme assay (Caliper LC3000 mobility shift). The format is biochemical. As for the experimental part: (§2) The Aurora and other kinase assays described here were performed on two Caliper Life Sciences systems, the LC3000 and the Desktop Profiler. These provide data on enzyme activity via measurement of the relative amounts of phosphorylated or unphosphorylated fluorescently labelled substrate peptide at the end of an enzymatic reaction. These different states of peptide are resolved by applying a potential difference across the sample. The presence of a charged phosphate group on the product (as opposed to the substrate) causes a different peptide mobility between the two peptides. This is visualized by excitation of a fluorescent label on the substrate and product peptides and represented as peaks within the analysis software.
For example, in order to measure inhibitor activity of Aurora A inhibitors in the Caliper Life Sciences LC3000, a TTP Mosquito liquid handling instrument was used to place […] of an appropriate concentration of inhibitor in 100% DMSO (for a dose response curve calculation) into each well of a 384-well plate. To this reaction components were added to a final volume of 25 μl: • 0.067 ng/μl GST-Aurora A (Carna Biosciences 05-101. N-terminal GST fusion with full length Aurora A (1-403 amino acids), accession number NP_940835.1). • 15 μM ATP (Fluka, 02055) • 1 mM DTT (Sigma, D0632) • 1 mM MgC12 (Sigma, M1028) • 1 μM substrate peptide (sequence FITC-LRRASLG-(CONH2), synthesized by Tufts Peptide Synthesis service. • 100 mM HEPES pH 7.5 (Calbiochem, 391338) • 0.015% Brij-35 (Sigma, B4184)
The reaction was incubated for 90 min at 25° C., and then stopped by the addition of 70 μl of Stop buffer (100 mM HEPES pH 7.5, 0.015% Brij-35, 10 mM EDTA (Sigma, E7889)).
The plate was read on a Caliper LC 3000 in an Off-Chip mobility shift assay format, using the following parameters for a 12-sipper chip: screening pressure −1.8 psi, upstream voltage −2700, downstream voltage −1000. These conditions cause unphosphorylated substrate and phosphorylated product peptide to resolve as separate peaks allowing direct measurement of percentage of conversion of substrate to product. The percent conversion was plotted against concentration of inhibitor to produce a sigmoidal dose response curve, from which an IC50 was calculated using XLFit for Microsoft Excel.

The subject of the next experiment is A549. Kind of experiment: Cellular activity A549. The format is cell-based. As to conditions: Homo sapiens. As for the experimental part: as §1
For a further experiment, the target named is Aurora B (Homo sapiens, UniProt Q96GD4). The experiment is described as follows: Aurora B enzyme assay (Caliper). The format is biochemical. As for the experimental part: as §2
Sequence of Aurora B (Q96GD4 whole entry): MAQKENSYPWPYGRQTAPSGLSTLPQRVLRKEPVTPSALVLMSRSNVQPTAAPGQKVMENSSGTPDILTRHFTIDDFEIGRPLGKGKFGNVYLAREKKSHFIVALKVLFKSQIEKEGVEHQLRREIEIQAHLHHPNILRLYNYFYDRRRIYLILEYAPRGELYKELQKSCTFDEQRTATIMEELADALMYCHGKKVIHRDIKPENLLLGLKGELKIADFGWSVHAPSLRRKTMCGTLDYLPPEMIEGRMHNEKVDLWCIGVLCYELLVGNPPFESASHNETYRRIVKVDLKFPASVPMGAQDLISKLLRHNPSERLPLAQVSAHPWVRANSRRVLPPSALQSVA

On to `NC(=O)[C@H]1[C@H]2C[C@H]3[C@H]1Nc1nc(ncc1F)Nc1ccc(F)c(c1)CC(=O)N[C@@H]3C2`, for which the IC50 with MiaPaca2 was 1000 to 6250 nM; at Aurora A it was 1 to 100 nM; in the experiment with A549 it was 1000 to 6250 nM; on Aurora B, 1 to 100 nM.
Consider `Fc1cnc2nc1NC1CCC(CC1)OC/C=C/COc1cccc(c1)N2`, for which the IC50 at Aurora A was in the range of 101 to 1000 nM.
On to `CN1CCN(c2ccc3cc2C(O)CS(=O)(=O)[C@@H]2C[C@@H]4C[C@H]2[C@@H](Nc2nc(ncc2F)N3)[C@H]4C(N)=O)CC1` (some centres unmarked), for which the concentration for half-maximal inhibition (IC50) at Aurora A and against Aurora B was 1 to 100 nM throughout.
Regarding `CN1CCN(c2ccc3cc2NC(=O)CN[C@@H]2C[C@@H]4C[C@H]2[C@@H](Nc2nc(ncc2F)N3)[C@H]4C(N)=O)CC1`, the IC50 with MiaPaca2 is 1000 to 6250 nM; on Aurora A, 1 to 100 nM; with A549, 1000 to 6250 nM; on Aurora B, 1 to 100 nM.
On to `NC(=O)[C@H]1[C@H]2C[C@H]3[C@H]1Nc1nc(ncc1F)Nc1cccc(c1)CCS(=O)(=O)[C@@H]3C2`, for which the IC50 was in the range of 1000 to 6250 nM in the experiment with MiaPaca2, 1 to 100 nM at Aurora A, 1000 to 6250 nM with A549 and 1 to 100 nM on Aurora B.
In the case of `CN1CCC(c2ccc3cc2OCCS[C@@H]2C[C@@H]4C[C@H]2[C@@H](Nc2nc(ncc2F)N3)[C@H]4C(N)=O)CC1`, the IC50 in the experiment on MiaPaca2 fell in the range of 101 to 1000 nM; at Aurora A, 1 to 100 nM; in the experiment on A549, 101 to 1000 nM; against Aurora B, 1 to 100 nM.
In the case of `NC(=O)[C@H]1[C@H]2C[C@H]3[C@H]1Nc1nc(ncc1F)Nc1cccc(c1)CCC(=O)O[C@@H]3C2`, the half-inhibitory concentration (IC50) with MiaPaca2 was in the range of 1000 to 6250 nM; at Aurora A, 101 to 1000 nM; with A549 it was 1000 to 6250 nM; against Aurora B, 101 to 1000 nM.
Consider `NC(=O)[C@H]1[C@H]2C[C@H]3[C@H]1Nc1nc(ncc1F)Nc1ccc4c(c1)N(CC4)C(=O)CS[C@@H]3C2`, for which the concentration for half-maximal inhibition (IC50) was more than 6250 nM with MiaPaca2, 1 to 100 nM on Aurora A, more than 6250 nM with A549 and 101 to 1000 nM against Aurora B.
With `NC(=O)[C@H]1[C@H]2C[C@H]3[C@H]1Nc1nc(ncc1F)Nc1cccc(c1)/C=C\S[C@@H]3C2`, the IC50 on Aurora A lay within 101 to 1000 nM.
Turning to `NC(=O)[C@H]1[C@H]2C[C@H]3[C@H]1Nc1nc(ncc1F)Nc1cccc(c1)[C@@H](O)CS[C@@H]3C2`, the IC50 in the experiment with MiaPaca2 fell in the range of 101 to 1000 nM; on Aurora A, 1 to 100 nM; in the experiment with A549, 101 to 1000 nM; at Aurora B, 1 to 100 nM.
On to `NC(=O)[C@H]1[C@@H]2CC3CNC(=O)Cc4cccc(c4)Nc4ncc(F)c(n4)N[C@@H]1[C@@H]3C2` (some centres unmarked), for which, at Aurora A, the IC50 is 1 to 100 nM.
Still for that read-out and setting: then `NC(=O)[C@H]1C([C@@H](O)CO)CC2[C@H]1Nc1nc(ncc1F)Nc1cccc(c1)OC[C@H](O)[C@H]2O` (some centres unmarked), with 1000 to 6250 nM; and `O[C@@H]1COc2cccc(c2)Nc2ncc(F)c(n2)NC2CCCC(C2)OC[C@@H]1O` (some centres unmarked), with 101 to 1000 nM.
For the compound `NC(=O)[C@H]1[C@@H]2C[C@H]3CNS(=O)(=O)c4cccc(c4)Nc4ncc(F)c(n4)N[C@@H]1[C@@H]3C2`, the IC50 in the experiment on MiaPaca2 fell in the range of 1000 to 6250 nM; at Aurora A it was 1 to 100 nM; with A549, 1000 to 6250 nM; against Aurora B, 1 to 100 nM.
`NC(=O)[C@H]1[C@H]2C[C@H]3[C@H]1Nc1nc(ncc1F)Nc1cc(ccc1O)C(=O)CS[C@@H]3C2`: the IC50 at Aurora A and against Aurora B was 1000 to 6250 nM in each case.
As for `NC(=O)[C@H]1[C@H]2C[C@H]3[C@H]1Nc1nc(ncc1F)Nc1cccc(c1)CS(=O)(=O)N[C@@H]3C2`, the IC50 at Aurora A and against Aurora B was 101 to 1000 nM throughout.
Consider `CN1CCN(c2ccc3cc2C(=O)CS(=O)(=O)[C@@H]2C[C@@H]4C[C@H]2[C@@H](Nc2nc(ncc2F)N3)[C@H]4C(N)=O)CC1`, for which the IC50 on Aurora A lay within 1 to 100 nM; against Aurora B, 1000 to 6250 nM.
Regarding `NC(=O)[C@H]1[C@H]2C[C@H]3[C@H]1Nc1nc(ncc1F)Nc1cnn(c1)CCS[C@@H]3C2`, the IC50 at Aurora A was 1 to 100 nM.
On to `NC(=O)[C@H]1[C@H]2C[C@H]3[C@H]1Nc1nc(ncc1F)Nc1cccc(c1)C(O)CS[C@@H]3C2` (some centres unmarked), for which the IC50 with MiaPaca2 is 101 to 1000 nM; at Aurora A, 1 to 100 nM; in the experiment with A549, 101 to 1000 nM.
For the compound `NC[C@H]1[C@H]2C[C@H]3[C@H]1Nc1nc(ncc1F)Nc1cccc(c1)C(O)CS[C@@H]3C2` (some centres unmarked), the IC50 was more than 6250 nM with MiaPaca2, 1000 to 6250 nM on Aurora A and more than 6250 nM with A549.
Regarding `NC(=O)[C@H]1C([C@@H](O)CO)CC2C(O)[C@H](O)COc3cccc(c3)Nc3ncc(F)c(n3)N[C@H]21` (some centres unmarked), the IC50 on Aurora A was in the range of 1000 to 6250 nM.
On to `NC(=O)[C@H]1[C@H]2C[C@H]3[C@H]1Nc1nc(ncc1F)Nc1cccc(c1)NC(=O)CN[C@@H]3C2`, for which the IC50 at Aurora A fell in the range of 1000 to 6250 nM; at Aurora B, 101 to 1000 nM.
In the case of `Fc1cnc2nc1N[C@@H]1CCC[C@H](C1)OCCCCOc1cccc(c1)N2`, the IC50 at Aurora A is 101 to 1000 nM.
As for `CN1CCN(c2ccc3cc2C(=O)CS[C@@H]2C[C@@H]4C[C@H]2[C@@H](Nc2nc(ncc2F)N3)[C@H]4C(N)=O)CC1`, the IC50 was 1000 to 6250 nM in the experiment on MiaPaca2, 1 to 100 nM at Aurora A and 1000 to 6250 nM in the experiment on A549.
Regarding `CCC1CC2[C@H](O)C(O)COc3cccc(c3)Nc3ncc(F)c(n3)N[C@H]2[C@H]1C(N)=O` (some centres unmarked), the IC50 at Aurora A lay within 1000 to 6250 nM.
The same measure, in the same setting: then `NC(=O)[C@H]1[C@H]2C[C@H]3[C@H]1Nc1nc(ncc1F)Nc1cccc(c1)S(=O)(=O)NC(=O)N[C@@H]3C2`, with 101 to 1000 nM.
On to `NC(=O)[C@H]1[C@H]2C[C@H]3[C@H]1Nc1nc(ncc1F)Nc1cccc(c1)N(Cc1cccs1)C(=O)CS[C@@H]3C2`, for which the IC50 on Aurora A is 101 to 1000 nM; at Aurora B, 1000 to 6250 nM.
For `Fc1cnc2nc1NC1CCCC(C1)OC/C=C\COc1cccc(c1)N2` (centres unmarked) the same measures were 101 to 1000 nM and 101 to 1000 nM.
For `Fc1cnc2nc1NC1CCC(CC1)OC/C=C\COc1cccc(c1)N2` the same measures were 101 to 1000 nM and more than 6250 nM.
Take `C=CC(=O)NC[C@H]1[C@H]2C[C@H]3[C@H]1Nc1nc(ncc1F)Nc1cccc(c1)C(O)CS[C@@H]3C2` (some centres unmarked): the concentration for half-maximal inhibition (IC50) with MiaPaca2 is more than 6250 nM; at Aurora A it was 101 to 1000 nM; in the experiment with A549, more than 6250 nM.
Take `O[C@@H]1COC2CCCC(C2)Nc2nc(ncc2F)Nc2cccc(c2)OC[C@@H]1O` (some centres unmarked): on Aurora A, the IC50 is 101 to 1000 nM.
`CN1CCN(c2ccc3cc2OCCN(C)[C@@H]2C[C@@H]4C[C@H]2[C@@H](Nc2nc(ncc2F)N3)[C@H]4C(N)=O)CC1`: the IC50 at Aurora A and at Aurora B was 1 to 100 nM in each case.
`NC(=O)[C@H]1[C@H]2C[C@H]3[C@H]1Nc1nc(ncc1F)Nc1ccc(F)c(c1)CC(=O)O[C@@H]3C2`: the IC50 at Aurora A and against Aurora B was 1000 to 6250 nM throughout.
Turning to `Fc1cnc2nc1NC1CCCC(C1)OC/C=C/COc1cccc(c1)N2` (centres unmarked), the IC50 on Aurora A and against Aurora B was 101 to 1000 nM each time.
For `NC(=O)[C@H]1[C@H]2C[C@H]3[C@H]1Nc1nc(ncc1F)Nc1cccc(c1)[C@H](OCCO)CS[C@@H]3C2`, the IC50 in the experiment on MiaPaca2 lay in the range of 1000 to 6250 nM; at Aurora A it was 1 to 100 nM; with A549 it was 1000 to 6250 nM.
Turning to `CC(=O)N1Cc2cccc(c2)Nc2ncc(F)c(n2)N[C@@H]2[C@@H]3C[C@@H](C[C@H]3C1)[C@@H]2C(=O)O`, the IC50 was 1000 to 6250 nM on Aurora A and more than 6250 nM against Aurora B.
Consider `Fc1cnc2nc1N[C@H]1CCC[C@@H](C1)OCCCCOc1cccc(c1)N2`, for which the half-inhibitory concentration (IC50) on Aurora A lay in the range of 1000 to 6250 nM.
In the case of `NC(=O)[C@H]1[C@H]2C[C@H]3[C@H]1Nc1nc(ncc1F)Nc1cccc(c1)COCc1cn(nn1)[C@@H]3C2`, the values for the IC50 in the experiment on MiaPaca2, on Aurora A and in the experiment with A549 were 1000 to 6250 nM, 1 to 100 nM and 1000 to 6250 nM, respectively.

For orientation: IC50 means the midpoint of a concentration-inhibition curve.
